According to patent US7728040B1, “Polyamine conjugates as selective NMDA inhibitors and anti-cancer drugs” (University of Central Florids Research Foundation, Inc., priority 2002, dated 2010):
Read-outs that look alike come from different tables or passages of the source.

Columns and labels:
L1210 cells = assay: Cytotoxicity in L1210 cells; format: cell-based; conditions: Mus musculus
L1210 cells + DFMO = assay: Cytotoxicity in L1210 cells pretreated with DFMO; format: cell-based, mouse; conditions: for IC50: Mus musculus; for L1210/(L1210 + DFMO) IC50 ratio: fold more toxic in the presence of DFMO
polyamine transporter = assay: Ki, affinity for the polyamine transporter in L1210 cells; format: binding, mouse
Procedure: Biological Evaluation. Three cell lines were chosen for bioassay. L1210 (mouse leukemia) cells were selected for comparison with the published IC50 and Ki values determined for a variety of polyamine substrates. In this regard both Ki and IC50 values were measured in this line for comparison purposes. Chinese hamster ovary (CHO) cells were chosen along with a mutant cell line (CHO-MG) in order to comment on polyamine transporter affinity and cell selectivity. The CHO-MG cell line is polyamine-transport deficient and was isolated after chronic selection for growth resistance to methylglyoxalbis (guanylhydrazone). For the purposes of this study, the CHO-MG cell line represents cells with limited polyamine transport activity. In contrast, the parent CHO cell line illustrates cell types with active polyamine transport. Comparison of efficacy in these two lines provided an important screen to detect conjugate delivery via the polyamine transporter, PAT. For example, a conjugate with high utilization of the transporter would be very toxic to CHO cells, but less so to CHO-MG cells. Therefore, IC50 determination in these two CHO lines provided a relative ranking of delivery via the PAT.

CHO-MG cells = assay: Cytotoxicity in CHO-MG cells (polyamine-transport deficient); format: cell-based, Chinese hamster; conditions: Cricetulus griseus, read-out: CHO-MG IC50
CHO cells = assay: Cytotoxicity in CHO cells (active polyamine transporter); format: cell-based, Chinese hamster; conditions: for IC50: Cricetulus griseus, CHO, read-out: CHO IC50; for CHO-MG/CHO IC50 ratio: selectivity for cells with active polyamine transporter
NR1/NR2A NMDA receptor = NR1/NR2A NMDA receptor (Homo sapiens, UniProt Q05586+Q12879); assay: Inhibition of NMDA receptor NR1/NR2A function; format: cell-based
NR1/NR2A NMDA receptor, sequence (Q12879 23-1464, other chains not shown): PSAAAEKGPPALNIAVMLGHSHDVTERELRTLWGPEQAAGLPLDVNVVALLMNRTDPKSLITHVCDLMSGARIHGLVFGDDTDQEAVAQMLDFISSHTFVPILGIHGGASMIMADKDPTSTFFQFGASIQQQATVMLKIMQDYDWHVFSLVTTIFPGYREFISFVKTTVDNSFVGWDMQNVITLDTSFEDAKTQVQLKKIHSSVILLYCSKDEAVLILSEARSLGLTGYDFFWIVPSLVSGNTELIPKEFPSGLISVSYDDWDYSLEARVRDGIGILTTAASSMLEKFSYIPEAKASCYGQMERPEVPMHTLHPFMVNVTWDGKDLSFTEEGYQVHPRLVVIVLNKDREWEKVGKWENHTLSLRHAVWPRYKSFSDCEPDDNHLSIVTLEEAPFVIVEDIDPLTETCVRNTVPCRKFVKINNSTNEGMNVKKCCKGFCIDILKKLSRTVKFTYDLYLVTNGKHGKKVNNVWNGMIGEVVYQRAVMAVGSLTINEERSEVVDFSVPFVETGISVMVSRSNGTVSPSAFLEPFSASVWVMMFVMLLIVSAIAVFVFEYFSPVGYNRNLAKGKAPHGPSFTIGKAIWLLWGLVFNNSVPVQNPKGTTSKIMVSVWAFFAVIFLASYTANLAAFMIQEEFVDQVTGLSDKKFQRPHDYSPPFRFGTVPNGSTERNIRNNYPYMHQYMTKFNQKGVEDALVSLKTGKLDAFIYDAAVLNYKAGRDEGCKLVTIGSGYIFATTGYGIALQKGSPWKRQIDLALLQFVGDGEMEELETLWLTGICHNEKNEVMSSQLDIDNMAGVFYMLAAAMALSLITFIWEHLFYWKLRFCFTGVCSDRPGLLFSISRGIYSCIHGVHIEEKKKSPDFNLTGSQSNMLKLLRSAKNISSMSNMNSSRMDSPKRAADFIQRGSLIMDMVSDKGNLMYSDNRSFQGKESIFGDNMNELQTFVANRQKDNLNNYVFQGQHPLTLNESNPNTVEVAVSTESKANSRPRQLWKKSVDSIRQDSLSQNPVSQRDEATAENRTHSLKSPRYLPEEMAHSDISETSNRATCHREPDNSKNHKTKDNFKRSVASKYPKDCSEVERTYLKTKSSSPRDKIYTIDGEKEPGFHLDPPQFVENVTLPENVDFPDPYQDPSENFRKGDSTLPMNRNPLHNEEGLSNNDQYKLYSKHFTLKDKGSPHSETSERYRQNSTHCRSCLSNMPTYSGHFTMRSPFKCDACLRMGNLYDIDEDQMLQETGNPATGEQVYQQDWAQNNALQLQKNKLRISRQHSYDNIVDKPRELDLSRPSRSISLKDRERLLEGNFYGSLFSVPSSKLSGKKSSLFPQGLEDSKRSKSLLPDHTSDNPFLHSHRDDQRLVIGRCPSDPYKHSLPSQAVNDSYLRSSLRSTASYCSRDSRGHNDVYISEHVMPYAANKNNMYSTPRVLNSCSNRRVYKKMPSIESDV

[1] = L1210 cells, no DFMO, read-out: L1210 IC50
[2] = L1210 cells pretreated with DFMO, read-out: L1210 + DFMO IC50
[3] = polyamine-transport deficient line

SMILES | IC50 (L1210 cells; [1]) [µM] | IC50 (L1210 cells + DFMO; [2]) [µM] | L1210/(L1210 + DFMO) IC50 ratio (L1210 cells + DFMO) | Ki (polyamine transporter) [µM] | IC50 (CHO-MG cells; [3]) [µM] | IC50 (CHO cells; active polyamine transporter) [µM] | CHO-MG/CHO IC50 ratio (CHO cells) | CHO-MG/CHO IC50 ratio (CHO cells; listed as 27c, Trihydrochloride) | CHO-MG/CHO IC50 ratio (CHO cells; trihydrochloride) | IC50 (L1210 cells; L1210, read-out: L1210 IC50) [µM] | IC50 (L1210 cells + DFMO; L1210, read-out: L1210 + DFMO IC50) [µM] | IC50 (CHO-MG cells) [µM] | IC50 (CHO cells) [µM] | IC50 for NR1/NR2A (NR1/NR2A NMDA receptor) | NMDA receptor (NR1A/NR2A) function at the highest dose (NR1/NR2A NMDA receptor)
Cl.Cl.Cl.Cl.NCCCCCN(CCCCNCCCN)Cc1c2ccccc2cc2ccccc12 [Compound 13g, N-[4-(3-Amino-propylamino)-butyl]-N-anthracen-9-ylmethyl-pentane-1,5-diamine Tetrahydrochloride] | 6.4 | 2.1 | 3 | 0.099 | 33.5 | 18 | 1.9 |  |  |  |  |  |  |  | 
Cl.Cl.Cl.NCCCCCN(CCCN)Cc1c2ccccc2cc2ccccc12 [Compound 8f, N-(3-Amino-propyl)-N-anthracen-9-ylmethyl-pentane-1,5-diamine, trihydrochloride] | 1.3 | 0.7 | 1.9 | 5 | 10.1 | 4.1 | 2.5 |  |  |  |  |  |  |  | 
Cl.Cl.Cl.Cl.NCCCCCN(CCCCNCCCCN)Cc1c2ccccc2cc2ccccc12 [Compound 13h, N-[4-(4-Amino-butylamino)-butyl]-N-anthracen-9-ylmethyl-pentane-1,5-diamine Tetrahydrochloride] | 7.2 | 3.8 | 1.9 | 0.065 | 30.8 | 9.9 |  |  |  |  |  |  |  |  | 
Cl.Cl.Cl.Cl.NCCCCCN(CCCCCNCCCCN)Cc1c2ccccc2cc2ccccc12 [Compound 13i, N-[5-(4-Amino-butylamino)-pentyl]-N-anthracen-9-ylmethyl-pentane-1,5-diamine Tetrahydrochloride] | 7.1 | 4.3 | 1.7 | 0.064 | 5.7 | 4 | 1.4 |  |  |  |  |  |  |  | 
Cl.Cl.Cl.NC1CCC(NCCCCNCc2c3ccccc3cc3ccccc23)CC1 (stereo not shown) [Compound 31, N-{4-[(Anthracen-9-ylmethyl)-amino]-butyl}-cyclohexane-1,4-diamine Trihydrochloride] | 1 | 0.7 | 1.4 | 3.8 | 17.4 | 2.5 | 7 |  |  |  |  |  |  |  | 
Cl.Cl.Cl.NCCCCN(CCCN)Cc1c2ccccc2cc2ccccc12 [Compound 8d, N-(3-Amino-propyl)-N-anthracen-9-ylmethyl-butane-1,4-diamine, trihydrochloride] | 0.4 | 0.2 | 2 | 6.2 | 9.5 | 0.4 | 24 |  |  |  |  |  |  |  | 
Cl.Cl.Cl.NCCCCNCCCCNCc1cccc2ccccc12 [Compound 27b, N-(4-Amino-butyl)-N′-naphthalen-1-ylmethyl-butane-1,4-diamine Trihydrochloride] | 0.5 | 0.43 | 1.1 | 3.8 | > 100 | 0.6 |  | >164 | > 164 |  |  |  |  |  | 
Cl.Cl.Cl.NCCCCNCCCNCc1c2ccccc2cc2ccccc12 [Compound 8c, N^1-{3-[(Anthracen-9-ylmethyl)-amino]-propyl}-butane-1,4-diamine, trihydrochloride] | 0.7 | 0.3 | 2.3 | 2.5 | 8.8 | 2.5 | 3.5 |  |  |  |  |  |  |  | 
Cl.Cl.Cl.Cl.NCCCCN(CCCCNCCCN)Cc1c2ccccc2cc2ccccc12 [Compound 13e, N-[4-(3-Amino-propylamino)-butyl]-N-anthracen-9-ylmethyl-butane-1,4-diamine Tetrahydrochloride] | 4.3 | 0.6 | 7.2 | 0.074 | 2.8 | 4 | 0.7 |  |  |  |  |  |  |  | 
Cl.Cl.Cl.NCCCCNCCCCNCc1ccc2ccc3cccc4ccc1c2c34 [Compound 27d, N-(4-Amino-butyl)-N′-pyren-1-ylmethyl-butane-1,4-diamine Trihydrochloride] |  |  | 1.1 | 2.9 |  |  | 34 |  |  | 0.4 | 0.36 | 15.5 | 0.46 |  | 
Cl.Cl.Cl.Cl.NCCCCCN(CCCCN)CCCNCc1c2ccccc2cc2ccccc12 [Compound 13d, N-(4-Amino-butyl)-N-{3-[(anthracen-9-ylmethyl)-amino]-propyl}-pentane-1,5-diamine Tetrahydrochloride] | 10.7 | 7.2 | 1.5 | 0.09 | 41.7 | 35 | 1.2 |  |  |  |  |  |  |  | 
c1ccc2cc3ccccc3cc2c1 [Anthracene] |  |  |  |  |  |  |  |  |  |  |  |  |  | no effect | greater than 85%
